Laboratory results reported in the NIST ThermoML archive (doi:10.1016/j.tca.2016.08.008).
Numbers after ± are expanded uncertainties.

Assay: molar heat capacity at constant pressure
Conditions: 101.33 kPa, Metastable crystal, Vacuum adiabatic calorimetry

O=P([O-])([O-])[O-].[Tb+3] [terbium orthophosphate]
Conditions | molar heat capacity at constant pressure [J/K/mol]
7 K | 0.2233 ± 0.014
8 K | 0.3348 ± 0.019
8.48 K | 0.404 ± 0.027
9 K | 0.4742 ± 0.026
9.05 K | 0.511 ± 0.033
9.71 K | 0.655 ± 0.042
10 K | 0.6496 ± 0.035
10.37 K | 0.779 ± 0.049
11.05 K | 0.934 ± 0.058
11.74 K | 1.116 ± 0.069
12 K | 1.115 ± 0.057
12.45 K | 1.328 ± 0.082
13.16 K | 1.551 ± 0.095
13.89 K | 1.784 ± 0.11
14 K | 1.738 ± 0.089
14.62 K | 2.037 ± 0.12
15.36 K | 2.349 ± 0.14
16 K | 2.51 ± 0.13
16.12 K | 2.666 ± 0.16
16.88 K | 2.985 ± 0.18
17.64 K | 3.316 ± 0.2
18 K | 3.404 ± 0.17
18.41 K | 3.69 ± 0.22
19.18 K | 4.058 ± 0.24
19.96 K | 4.44 ± 0.27
20 K | 4.388 ± 0.22
21.2 K | 5.035 ± 0.11
22.67 K | 5.753 ± 0.12
24.17 K | 6.522 ± 0.14
25 K | 7.043 ± 0.14
25.69 K | 7.302 ± 0.15
27.22 K | 8.099 ± 0.17
28.76 K | 8.951 ± 0.18
30 K | 9.779 ± 0.2
30.31 K | 9.817 ± 0.2
31.87 K | 10.74 ± 0.22
33.44 K | 11.64 ± 0.24
35 K | 12.55 ± 0.26
35.02 K | 12.43 ± 0.25
36.6 K | 13.44 ± 0.27
38.18 K | 14.4 ± 0.29
39.77 K | 15.33 ± 0.31
40 K | 15.41 ± 0.31
41.38 K | 16.26 ± 0.2
42.98 K | 17.22 ± 0.21
44.6 K | 18.17 ± 0.23
45 K | 18.37 ± 0.19
46.24 K | 19.19 ± 0.24
47.86 K | 20.2 ± 0.25
49.48 K | 21.22 ± 0.26
50 K | 21.44 ± 0.22
51.11 K | 22.24 ± 0.27
52.74 K | 23.26 ± 0.29
54.37 K | 24.23 ± 0.3
55 K | 24.56 ± 0.25
56 K | 25.23 ± 0.31
57.64 K | 26.25 ± 0.32
59.28 K | 27.25 ± 0.33
60 K | 27.69 ± 0.29
60.93 K | 28.25 ± 0.35
62.57 K | 29.31 ± 0.36
64.22 K | 30.35 ± 0.37
65.88 K | 31.35 ± 0.38
67.53 K | 32.33 ± 0.4
69.19 K | 33.27 ± 0.41
70 K | 33.8 ± 0.35
71.05 K | 34.29 ± 0.42
73.13 K | 35.52 ± 0.43
75.2 K | 36.74 ± 0.45
77.26 K | 38.04 ± 0.46
79.33 K | 39.29 ± 0.48
80 K | 39.56 ± 0.4
81.4 K | 40.39 ± 0.49
83.47 K | 41.31 ± 0.5
83.73 K | 41.32 ± 0.5
85.54 K | 42.27 ± 0.52
85.78 K | 42.39 ± 0.52
87.61 K | 43.75 ± 0.53
87.83 K | 43.95 ± 0.54
89.69 K | 44.86 ± 0.55
89.89 K | 45.03 ± 0.55
90 K | 44.91 ± 0.48
91.76 K | 45.8 ± 0.58
91.94 K | 46.03 ± 0.58
93.84 K | 46.75 ± 0.59
94 K | 47.04 ± 0.59
95.93 K | 47.75 ± 0.6
96.06 K | 48.09 ± 0.6
98.01 K | 48.74 ± 0.61
98.12 K | 49.05 ± 0.61
100 K | 49.89 ± 0.53
100.09 K | 49.85 ± 0.62
100.18 K | 50.06 ± 0.63
102.79 K | 51.27 ± 0.64
102.86 K | 51.16 ± 0.64
106.14 K | 52.71 ± 0.66
109.43 K | 54.24 ± 0.68
110 K | 54.53 ± 0.57
112.71 K | 55.74 ± 0.69
116.01 K | 57.18 ± 0.71
119.3 K | 58.57 ± 0.73
120 K | 58.89 ± 0.62
122.6 K | 59.95 ± 0.74
125.9 K | 61.32 ± 0.76
129.2 K | 62.65 ± 0.77
130 K | 63 ± 0.66
132.49 K | 63.94 ± 0.79
135.79 K | 65.24 ± 0.81
139.09 K | 66.54 ± 0.82
140 K | 66.91 ± 0.7
142.39 K | 67.77 ± 0.84
145.69 K | 69.04 ± 0.85
148.98 K | 70.3 ± 0.87
150 K | 70.62 ± 0.73
152.28 K | 71.55 ± 0.88
155.57 K | 72.72 ± 0.89
158.87 K | 73.84 ± 0.91
160 K | 74.17 ± 0.77
162.16 K | 74.93 ± 0.92
165.45 K | 76.02 ± 0.93
168.73 K | 77.12 ± 0.95
170 K | 77.56 ± 0.8
172.02 K | 78.29 ± 0.96
175.28 K | 79.23 ± 0.97
178.56 K | 80.19 ± 0.98
180 K | 80.8 ± 0.83
181.84 K | 81.29 ± 1
185.11 K | 82.39 ± 1
188.38 K | 83.45 ± 1
190 K | 83.89 ± 0.86
191.65 K | 84.37 ± 1
194.92 K | 85.28 ± 1
198.18 K | 86.29 ± 1.1
200 K | 86.85 ± 0.89
201.43 K | 87.36 ± 1.1
205.1 K | 88.44 ± 1.1
209.15 K | 89.46 ± 1.1
210 K | 89.66 ± 0.92
213.21 K | 90.54 ± 1.1
217.26 K | 91.68 ± 1.1
220 K | 92.36 ± 0.95
221.31 K | 92.89 ± 1.1
225.34 K | 93.96 ± 1.1
229.34 K | 95.06 ± 1.2
230 K | 94.92 ± 0.97
233.27 K | 95.82 ± 1.2
237.28 K | 96.8 ± 1.2
240 K | 97.37 ± 1
241.28 K | 97.76 ± 1.2
245.26 K | 98.58 ± 1.2
249.23 K | 99.5 ± 1.2
250 K | 99.7 ± 1
253.16 K | 100.4 ± 1.2
257.1 K | 101.2 ± 1.2
260 K | 101.9 ± 1
260.99 K | 102.1 ± 1.2
264.86 K | 102.9 ± 1.3
268.76 K | 103.8 ± 1.3
270 K | 104 ± 1.1
272.6 K | 104.6 ± 1.3
276.41 K | 105.3 ± 1.3
280 K | 106 ± 1.1
280.2 K | 105.9 ± 1.3
283.96 K | 106.6 ± 1.3
287.7 K | 107.3 ± 1.3
290 K | 107.9 ± 1.1
